# Assay results published in ChEMBL document CHEMBL1134688, “Synthesis, biological evaluation, and pharmacophore generation of new pyridazinone derivatives with affinity toward alpha(1)- and alpha(2)-adrenoceptors” (J Med Chem, 2001).
# Legend:
# [1] = biological target: Adrenergic receptor alpha-2 (Rattus norvegicus) (UniProt P22086+P19328+P22909); experiment: Ratio of binding affinity towards Alpha-2 and alpha-1 adrenergic receptor; type: protein assay
# [2] = biological target: T1, Adrenergic receptor alpha-2 (Rattus norvegicus, UniProt P22086+P19328+P22909); experiment: Binding affinity towards alpha-2 adrenergic receptor in rat cortex membrane using [3H]rauwolscine radioligand; type: cell membranes
# T1 sequence (P22086 whole entry): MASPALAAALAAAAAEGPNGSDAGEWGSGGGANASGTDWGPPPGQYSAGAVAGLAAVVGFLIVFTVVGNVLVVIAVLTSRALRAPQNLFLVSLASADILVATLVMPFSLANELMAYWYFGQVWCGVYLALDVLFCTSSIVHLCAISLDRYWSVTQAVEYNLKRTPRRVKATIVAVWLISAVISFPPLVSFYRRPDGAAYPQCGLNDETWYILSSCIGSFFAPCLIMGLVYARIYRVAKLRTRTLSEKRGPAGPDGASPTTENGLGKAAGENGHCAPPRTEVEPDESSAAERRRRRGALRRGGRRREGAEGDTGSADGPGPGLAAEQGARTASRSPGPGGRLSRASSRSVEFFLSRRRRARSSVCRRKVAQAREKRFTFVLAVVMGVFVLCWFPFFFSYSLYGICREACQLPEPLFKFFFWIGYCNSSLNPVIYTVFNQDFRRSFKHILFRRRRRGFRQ
# T1 sequence (P19328 whole entry): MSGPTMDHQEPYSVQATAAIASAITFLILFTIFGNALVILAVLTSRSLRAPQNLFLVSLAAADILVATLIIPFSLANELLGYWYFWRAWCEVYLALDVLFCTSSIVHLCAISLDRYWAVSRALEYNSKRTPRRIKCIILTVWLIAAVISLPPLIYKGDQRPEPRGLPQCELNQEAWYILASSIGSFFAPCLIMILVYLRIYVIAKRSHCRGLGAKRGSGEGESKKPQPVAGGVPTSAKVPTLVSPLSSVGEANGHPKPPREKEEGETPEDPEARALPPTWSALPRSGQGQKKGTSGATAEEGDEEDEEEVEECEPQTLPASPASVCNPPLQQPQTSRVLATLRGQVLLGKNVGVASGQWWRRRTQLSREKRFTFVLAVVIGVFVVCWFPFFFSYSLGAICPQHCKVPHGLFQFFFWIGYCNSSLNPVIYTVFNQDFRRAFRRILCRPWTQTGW
# T1 sequence (P22909 whole entry): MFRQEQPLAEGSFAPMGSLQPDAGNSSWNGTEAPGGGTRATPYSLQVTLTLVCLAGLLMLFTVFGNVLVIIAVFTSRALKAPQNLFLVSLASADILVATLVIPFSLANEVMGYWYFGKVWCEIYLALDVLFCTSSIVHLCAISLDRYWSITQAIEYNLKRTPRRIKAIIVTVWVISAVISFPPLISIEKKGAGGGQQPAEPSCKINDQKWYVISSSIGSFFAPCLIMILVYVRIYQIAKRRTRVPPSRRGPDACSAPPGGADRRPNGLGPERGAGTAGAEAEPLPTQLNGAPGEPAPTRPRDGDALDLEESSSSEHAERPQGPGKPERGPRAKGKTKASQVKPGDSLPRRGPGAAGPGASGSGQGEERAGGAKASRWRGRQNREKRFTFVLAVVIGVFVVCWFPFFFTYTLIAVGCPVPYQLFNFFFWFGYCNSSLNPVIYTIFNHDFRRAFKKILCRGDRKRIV
# [3] = biological target: T2, Adrenergic receptor alpha-1 (Rattus norvegicus, UniProt P15823+P23944+P43140); experiment: Binding affinity towards alpha-1 adrenergic receptor in rat cortex membrane using [3H]-prazosin radioligand; type: cell membranes
# T2 sequence (P15823 whole entry): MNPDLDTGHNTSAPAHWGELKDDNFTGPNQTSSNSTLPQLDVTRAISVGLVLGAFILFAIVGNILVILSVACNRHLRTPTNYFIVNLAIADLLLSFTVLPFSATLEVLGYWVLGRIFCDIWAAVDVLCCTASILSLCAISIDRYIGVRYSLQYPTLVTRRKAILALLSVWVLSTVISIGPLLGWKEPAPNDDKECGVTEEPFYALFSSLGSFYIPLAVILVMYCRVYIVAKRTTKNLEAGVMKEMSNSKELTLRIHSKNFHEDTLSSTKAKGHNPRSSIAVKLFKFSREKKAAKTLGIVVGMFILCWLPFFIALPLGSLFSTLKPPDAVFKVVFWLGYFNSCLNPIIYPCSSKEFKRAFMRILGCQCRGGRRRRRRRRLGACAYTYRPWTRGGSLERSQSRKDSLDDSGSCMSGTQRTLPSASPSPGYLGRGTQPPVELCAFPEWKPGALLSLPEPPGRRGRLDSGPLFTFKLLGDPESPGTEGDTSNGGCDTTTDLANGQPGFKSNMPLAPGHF
# T2 sequence (P23944 whole entry): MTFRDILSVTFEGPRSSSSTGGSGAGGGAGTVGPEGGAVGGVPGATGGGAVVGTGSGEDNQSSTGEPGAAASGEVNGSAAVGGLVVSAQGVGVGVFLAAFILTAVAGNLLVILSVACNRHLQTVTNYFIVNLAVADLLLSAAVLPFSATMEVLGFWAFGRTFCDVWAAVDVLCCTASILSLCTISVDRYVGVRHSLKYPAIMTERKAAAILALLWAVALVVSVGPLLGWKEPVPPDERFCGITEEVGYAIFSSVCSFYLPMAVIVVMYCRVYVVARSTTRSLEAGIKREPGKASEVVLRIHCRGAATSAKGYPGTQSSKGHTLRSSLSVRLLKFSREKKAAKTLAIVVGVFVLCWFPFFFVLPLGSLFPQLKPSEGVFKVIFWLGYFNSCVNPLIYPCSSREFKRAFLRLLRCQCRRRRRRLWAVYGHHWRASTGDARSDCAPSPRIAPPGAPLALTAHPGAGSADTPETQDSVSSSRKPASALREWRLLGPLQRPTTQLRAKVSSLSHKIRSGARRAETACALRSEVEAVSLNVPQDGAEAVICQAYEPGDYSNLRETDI
# T2 sequence (P43140 whole entry): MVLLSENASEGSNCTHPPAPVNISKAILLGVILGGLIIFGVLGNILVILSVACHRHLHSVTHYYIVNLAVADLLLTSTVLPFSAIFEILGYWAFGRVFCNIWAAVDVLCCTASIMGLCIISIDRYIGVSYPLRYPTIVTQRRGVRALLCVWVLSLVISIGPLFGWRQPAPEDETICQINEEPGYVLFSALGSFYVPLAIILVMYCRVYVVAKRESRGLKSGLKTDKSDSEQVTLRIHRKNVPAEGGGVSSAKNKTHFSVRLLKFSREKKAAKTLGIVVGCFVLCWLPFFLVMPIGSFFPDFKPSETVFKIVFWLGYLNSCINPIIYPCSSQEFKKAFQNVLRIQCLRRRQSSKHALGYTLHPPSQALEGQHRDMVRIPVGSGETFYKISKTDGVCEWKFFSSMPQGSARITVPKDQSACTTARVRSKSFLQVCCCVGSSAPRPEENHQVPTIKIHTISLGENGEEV
Ratio [1],Ki [2] [nM],Ki [3] [nM],Compound
3.1,36.2,11.5,O=C(c1ccco1)N1CCN(c2cnn(CCCCCCCN3CCN(c4ccccc4Cl)CC3)c(=O)c2Cl)CC1
2.3,3.5,1.5,COc1ccccc1OCCN1CCN(c2cnn(CCCCCCN3CCN(c4ccccc4OC)CC3)c(=O)c2Cl)CC1
5,292.3,58.8,COc1ccccc1OCCN1CCN(c2cnn(CCN3CCN(c4ccccc4Cl)CC3)c(=O)c2Cl)CC1
11.6,66,5.7,O=C(c1ccco1)N1CCN(c2cnn(CCCCCCN3CCN(c4ccccc4Cl)CC3)c(=O)c2Cl)CC1
38.4,150,3.9,O=C(c1ccco1)N1CCN(c2cnn(CCN3CCN(c4ccccc4Cl)CC3)c(=O)c2Cl)CC1
5.8,255,43.7,COc1ccccc1N1CCN(CCCCCn2nc(N3CCN(C(=O)c4ccco4)CC3)ccc2=O)CC1
20.5,370,18,COc1ccccc1OCCN1CCN(c2ccc(=O)n(CCN3CCN(c4ccccc4Cl)CC3)n2)CC1
53,230,4.3,COc1ccccc1OCCN1CCN(c2cnn(CCCCN3CCN(c4ccccc4OC)CC3)c(=O)c2Cl)CC1
5.4,69.8,12.9,COc1ccccc1OCCN1CCN(c2ccc(=O)n(CCCCCN3CCN(c4ccccc4OC)CC3)n2)CC1
6.5,22.7,3.5,COc1ccccc1OCCN1CCN(c2cnn(CCCCCCCCN3CCN(c4ccccc4OC)CC3)c(=O)c2Cl)CC1
2.7,7.4,2.7,COc1ccccc1OCCN1CCN(c2cnn(CCCCCCCN3CCN(c4ccccc4Cl)CC3)c(=O)c2Cl)CC1

# More lines, now with the values behind:
Compound,Ratio [1],Ki [2] [nM],Ki [3] [nM]
COc1ccccc1OCCN1CCN(c2cnn(CCCCCCCN3CCN(c4ccccc4OC)CC3)c(=O)c2Cl)CC1,3.2,4.6,1.4
COc1ccccc1N1CCN(CCCCCCCn2ncc(N3CCN(C(=O)c4ccco4)CC3)c(Cl)c2=O)CC1,274,520,1.9
COc1ccccc1N1CCN(Cn2nc(-c3ccccc3)c(C(C)=O)c(N)c2=O)CC1,,,2395
COc1ccccc1N1CCN(CCCCCCCn2nc(N3CCN(C(=O)c4ccco4)CC3)ccc2=O)CC1,1.7,96,54.7
COc1ccc(Cl)cc1N1CCN(CCn2nc(-c3ccccc3)c(C(C)=O)c(N)c2=O)CC1,,,42.7
COc1ccccc1N1CCN(CC(=O)c2c(-c3ccccc3)nn(C)c(=O)c2N)CC1,,,516
COc1ccccc1OCCN1CCN(c2cnn(CCCCN3CCN(c4ccccc4Cl)CC3)c(=O)c2Cl)CC1,4,39.3,10
O=C(c1ccco1)N1CCN(c2ccc(=O)n(CCCN3CCN(c4ccccc4Cl)CC3)n2)CC1,20.3,260,12.8
COc1ccccc1N1CCN(CCCn2nc(-c3ccccc3)c(C(C)=O)c(N)c2=O)CC1,,,46.7
COc1ccccc1N1CCN(CCn2ncc(N3CCN(C(=O)c4ccco4)CC3)c(Cl)c2=O)CC1,13.3,440,33
O=C(c1ccco1)N1CCN(c2cnn(CCCCCN3CCN(c4ccccc4Cl)CC3)c(=O)c2Cl)CC1,5,18,3.6
COc1ccccc1OCCN1CCN(c2ccc(=O)n(CCCN3CCN(c4ccccc4OC)CC3)n2)CC1,34.8,254,7.3
COc1ccccc1OCCN1CCN(c2ccc(=O)n(CCCCCN3CCN(c4ccccc4Cl)CC3)n2)CC1,20,138,7
COc1ccccc1OCCN1CCN(c2ccc(=O)n(CCCCCCN3CCN(c4ccccc4OC)CC3)n2)CC1,10.2,71.8,7
COc1ccccc1OCCN1CCN(c2ccc(=O)n(CCCCN3CCN(c4ccccc4OC)CC3)n2)CC1,103,62,0.6
COc1ccccc1OCCN1CCN(c2ccc(=O)n(CCCCCCCN3CCN(c4ccccc4Cl)CC3)n2)CC1,9.3,139,15
COc1ccccc1OCCN1CCN(c2cnn(CCCCCCCCN3CCN(c4ccccc4Cl)CC3)c(=O)c2Cl)CC1,4,22.8,5.6
COc1ccccc1N1CCN(CCCCCCn2nc(N3CCN(C(=O)c4ccco4)CC3)ccc2=O)CC1,5.6,100,17.8
COc1ccccc1N1CCN(CCn2nc(N3CCN(C(=O)c4ccco4)CC3)ccc2=O)CC1,,,94.5
COc1ccccc1N1CCN(CCCCCCn2ncc(N3CCN(C(=O)c4ccco4)CC3)c(Cl)c2=O)CC1,6,24.5,4.1
COc1ccccc1N1CCN(CCn2nc(-c3ccccc3)c3c(C)onc3c2=O)CC1,,,147
COc1ccccc1N1CCN(Cn2nc(-c3ccccc3)c3c(C)onc3c2=O)CC1,,,2308
COc1ccc(Cl)cc1N1CCN(CCCn2nc(-c3ccccc3)c3c(C)onc3c2=O)CC1,,,7.9
COc1ccc(Cl)cc1N1CCN(CCn2nc(-c3ccccc3)c3c(C)onc3c2=O)CC1,,,15.6
